In patent US5512269A, “Method of treating retained pulmonary secretions” (priority 1993, dated 1996):

What was measured:
normal airway epithelium = assay: Ussing chamber short circuit current (Isc) Cl- secretory response, normal airway epithelium primary cultures; assay type: cell-based, human
[1] = tested on: Mycobacterium tuberculosis 63169; assay type: cell-based; details: for susceptibility of strain 63169 to drug: streptomycin 6 μg/ml, isoniazid 0.2 μg/ml, rifampin 2 μg/ml, ethambutol 7.5 μg/ml
[2] = tested on: Mycobacterium tuberculosis 57778; assay type: cell-based; details: for susceptibility of strain 57778 to drug: streptomycin 6 μg/ml, isoniazid 0.2 μg/ml, rifampin 2 μg/ml, ethambutol 7.5 μg/ml
[3] = tested on: Mycobacterium tuberculosis drug sensitive laboratory strain; assay type: cell-based; details: for susceptibility of drug-sensitive laboratory strain to drug: streptomycin 6 μg/ml, isoniazid 0.2 μg/ml, rifampin 2 μg/ml, ethambutol 7.5 μg/ml
[4] = tested on: Mycobacterium tuberculosis 65021; assay type: cell-based; details: for susceptibility of strain 65021 to drug: streptomycin 6 μg/ml, isoniazid 0.2 μg/ml, rifampin 2 μg/ml, ethambutol 7.5 μg/ml
[5] = tested on: sheep airway surface liquid; details: sheep model, W. Mentz et al.; cited from earlier work
[6] = tested on: canine trachea airway surface liquid; details: dog
Method: 1. The Animal Model: The model developed employed 30 kg male dogs that were anesthetized with intravenous pentobarbital and maintained on a intravenous infusion of normal saline at 75 cc/hour. The dogs were intubated. Ventilatory support was provided by a Harvard™ piston pump. Adequate ventilation and oxygenation were documented by arterial blood gas studies. Peak airway pressures (PAP) were measured and continuous monitoring of hemoglobin saturation was accomplished by pulse oximetry.
Drug and vehicle were delivered through the endotracheal tube. The drug was nebulized employing a Pulmo-Aid™ Compressor and a DeVilbiss™ nebulizer. The drug (50 μM; 3 ml) in a saline vehicle or the saline vehicle alone (control) was nebulized for 6 minutes during which 0.7 ml thereof was delivered to the animal. […] After 6 minutes, a clean and dry nebulizer was exchanged for the test nebulizer containing the drug or vehicle. The investigators were blinded as to whether drug or vehicle was given.
2. Measurements of airway fluid: Airway liquid measurements were made by applying dry preweighed filter paper to the cartilaginous portions of the airway for 20 seconds. This was accomplished employing transbronchial biopsy forceps to grasp the papers. The forceps and papers were stored in plastic catheters. Sampling the airway liquid was accomplished by first inserting the bronchoscope through the endotracheal tube. Care was taken not to allow contact between mucosa and the bronchoscope. The catheter containing the biopsy forceps and filter papers was introduced into the airway lumen through the channel in the bronchoscope. The biopsy forceps were then pushed out of the catheter and the filter papers gently applied to the mucosa. After 20 seconds the biopsy forceps and filter papers were pulled back into the catheter and removed through the bronchoscope for weighing. The filter papers were accessed for weighing by again pushing the forceps holding the filter paper out of the catheter. In order to account for evaporative losses from the filter papers when exposed to room air, the time required to place the papers on the scales and perform the initial weighing was recorded. Three subsequent weighings over time were then made. A regression line was calculated. The weight of the filter papers at time zero, that is when they were maximally wet, was defined as the time when the filter papers were pushed out of the catheter after having been applied to the airway mucosa. The amount of fluid on the filter paper was taken as the difference between the dry weight of the papers and their weight at time zero. Each set of samples to be compared were further corrected for differences in the initial weight of the dry filter papers.
The goal of the first protocol was to study the effects on airway surfaces liquid of (1) repeatedly sampling the airway, and (2) nebulizing the normal saline vehicle.
Protocol 1 required, immediately prior to conducting the test studies, weighing and loading the filter papers into catheters. Ten separate catheter-forceps-filter paper set-ups were available. Ten measurements of airway liquid were then made in different areas of the trachea over a thirty-minute period, with measurements made at three minute intervals. The catheters were then reloaded and the saline vehicle nebulized onto the airway. Ten more measurements of airway surface liquid were then made over another thirty minute period.
Protocol 2 required sampling the airway every four minutes to obtain 30 measurements of airway liquid. This required reloading the 10 catheters twice during each experiment. Each reloading required 20 minutes. This protocol allowed the airway to be sampled over 160 minutes. Drug and vehicle administration were separated by one week in any one animal.

[7] = tested on: CFT43 cell line (intracellular cAMP); details: CFT43 cells, duramycin stimulation
Description: (§1) 4. Mechanisms of Action: Preliminary studies were also done investigating possible mechanisms of action.

[8] = tested on: CFT43 cell line (phospholipase C, inositol phosphates); details: CFT43 cells, duramycin stimulation
Description: as §1

CF airway epithelium = details: 10^-6 M
Description: 1. Ussing Chamber Studies: The Cl^- secretory response to stimulation of normal and CF airway epithelium was studied under short circuit (Isc) conditions employing tissues mounted in Ussing chambers. Ussing chambers are well known in the art and the manner of their use in the present example would be readily apparent to one skilled in the art.

Molecule: Nc1ncnc2c1ncn2[C@@H]1O[C@H](COP(=O)(O)OP(=O)(O)OP(=O)(O)O)[C@@H](O)[C@H]1O [ATP, reference compound]
- time course of Cl- secretory response (Isc) (normal airway epithelium; comparison agonist): rapid onset of action and a rapid return to the baseline current

Molecule: CC[C@@H](CO)NCCN[C@@H](CC)CO [ethambutol]
- susceptibility of strain 63169 to drug [1]: sensitive
- susceptibility of strain 57778 to drug [2]: sensitive
- susceptibility of drug-sensitive laboratory strain to drug [3]: sensitive
- susceptibility of strain 65021 to drug [4]: partially resistant

Molecule: N=C(N)NC(=O)c1nc(Cl)c(N)nc1N [amiloride]
- increase in airway fluid after amiloride treatment [5]: ~50%

Molecule: CO[C@H]1/C=C/O[C@@]2(C)Oc3c(C)c(O)c4c(O)c(c(/C=N/N5CCN(C)CC5)c(O)c4c3C2=O)NC(=O)/C(C)=C\C=C\[C@H](C)[C@H](O)[C@@H](C)[C@@H](O)[C@@H](C)[C@H](OC(C)=O)[C@@H]1C [rifampin]
- susceptibility of strain 63169 to drug [1]: resistant
- susceptibility of strain 57778 to drug [2]: resistant
- susceptibility of drug-sensitive laboratory strain to drug [3]: sensitive
- susceptibility of strain 65021 to drug [4]: resistant

Molecule: [H]/N=C(/N)N[C@H]1[C@H](O)[C@@H](O)[C@H](O[C@@H]2O[C@@H](C)[C@](O)(C=O)[C@H]2O[C@@H]2O[C@@H](CO)[C@H](O)[C@@H](O)[C@@H]2NC)[C@@H](N/C(N)=N\[H])[C@@H]1O [streptomycin]
- susceptibility of strain 63169 to drug [1]: sensitive
- susceptibility of strain 57778 to drug [2]: resistant
- susceptibility of drug-sensitive laboratory strain to drug [3]: sensitive
- susceptibility of strain 65021 to drug [4]: resistant

Molecule: duramycin
- activity on growth (growth index over 12 days), strain 63169 ([1]; 100 μM duramycin): approximately equal to that of the two drugs now known to be effective against this strain
- peak Isc (Cl- current) after duramycin (normal airway epithelium; 10^-6 M duramycin, normal tissues after amiloride and forskolin (10 μM), baseline 20 μA/cm^2 after amiloride): 50 μA/cm^2
- Cl- secretory response in normal tissue (normal airway epithelium; 10^-6 M, seven normal tissues): significant Cl^- secretory response
- Isc response to duramycin, control bathing solution (normal airway epithelium; 10^-6 M, solution containing both Na+ and Cl-): responded by increasing the Isc
- Isc response to duramycin, Cl- free bathing solution (normal airway epithelium; 10^-6 M, solution without Cl-): markedly attenuated response
- Isc response to duramycin, Na+ free bathing solution (normal airway epithelium; 10^-6 M, solution without Na+): responded by increasing the Isc
- concentration giving maximal response (normal airway epithelium; dose response study): 10^-6 M
- ED50 (normal airway epithelium; dose response study, Isc response): 300 nM
- duration of increase in Isc (Cl- secretory response) (normal airway epithelium; in some instances): > 1 h
- activity on growth (growth index over 12 days), strain 57778 ([2]; 100 μM duramycin): equally as effective as ethambutol
- increase in amount of fluid recovered over baseline, Protocol 2 ([6]; 160 minutes, vehicle first then duramycin one week later): several-fold increase
- return of airway surface liquid to baseline ([6]; Protocol 1): did not return to baseline even two hours following its administration
- surface airway liquid after vehicle one week following duramycin ([6]; Protocol 2, duramycin given first): remained elevated
- amount of fluid recovered from the airway, Protocol 1 ([6]; nebulized duramycin, 30 minute measurement period): marked and sustained increase
- increase in airway surface liquid recovered compared to vehicle controls ([6]; vehicle first, p=0.0179 (paired), p=0.0335 (unpaired), n=6): significant
- average change in amount of fluid recovered ([6]; versus vehicle): doubling
- intracellular cAMP levels [7]: did not cause intracellular cAMP levels to rise
- inositol phosphates (IPs) produced [8]: no detectable amounts of IPs
- activity on growth (growth index over 12 days), drug-sensitive laboratory strain ([3]; 100 μM duramycin): less active in vitro than streptomycin, isoniazid, rifampin, or ethambutol
- Cl- secretory response (change in Isc) in CF tissue relative to normal tissue (CF airway epithelium): approximately twice
- Cl- secretory response in CF tissue (CF airway epithelium; five CF tissues): significant Cl^- secretory response
- activity on growth (growth index over 12 days), strain 65021 ([4]; 100 μM duramycin): significantly more activity against this strain than any of the four traditional anti-tuberculosis drugs tested

Molecule: NNC(=O)c1ccncc1 [isoniazid]
- susceptibility of strain 63169 to drug [1]: resistant
- susceptibility of strain 57778 to drug [2]: resistant
- susceptibility of drug-sensitive laboratory strain to drug [3]: sensitive
- susceptibility of strain 65021 to drug [4]: resistant
